Common to all, as to assay type: biochemical
Experiment [1] has as its target T1, PIP4K2B (Homo sapiens, UniProt P78356).
T1 construct: made in house; host or cells: E. coli
T1 sequence (P78356 1-416): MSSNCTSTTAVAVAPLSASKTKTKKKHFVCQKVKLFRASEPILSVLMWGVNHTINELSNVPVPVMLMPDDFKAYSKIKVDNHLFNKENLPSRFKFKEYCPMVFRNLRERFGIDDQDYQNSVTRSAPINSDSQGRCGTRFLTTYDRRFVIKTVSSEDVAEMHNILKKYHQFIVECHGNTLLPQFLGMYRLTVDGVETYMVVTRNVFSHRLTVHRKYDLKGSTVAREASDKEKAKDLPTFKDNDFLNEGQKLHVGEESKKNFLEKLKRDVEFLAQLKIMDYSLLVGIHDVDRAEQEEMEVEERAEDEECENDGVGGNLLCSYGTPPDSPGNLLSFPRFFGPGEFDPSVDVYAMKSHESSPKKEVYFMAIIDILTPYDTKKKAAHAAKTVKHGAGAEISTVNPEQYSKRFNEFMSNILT
Nature of the experiment: Trans-FI P kinase assay PIP4K2B (Table 4). As to conditions: compounds listed under IC50 bins; read-out: Trans-FI P kinase assays: PIP4K2B IC50. An outline of the steps:
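Transcreener FI detection (Ex 584/Em 623) of GDP, converted via calibration curve, gives IC50 from residual activity versus log concentration (highest 4.8 μM). Reaction: 80 μM PI5P plus DOPE carrier, 100 μM GTP, 5 nM GST-tagged enzyme, pH 7.3 HEPES with MgCl2 and 5% DMSO, 2 h after 1 h enzyme-compound preincubation at 27° C.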

Experiment [2] deals with T2, PIP4K2A (Homo sapiens, UniProt P48426).
T2 sequence (P48426 1-406): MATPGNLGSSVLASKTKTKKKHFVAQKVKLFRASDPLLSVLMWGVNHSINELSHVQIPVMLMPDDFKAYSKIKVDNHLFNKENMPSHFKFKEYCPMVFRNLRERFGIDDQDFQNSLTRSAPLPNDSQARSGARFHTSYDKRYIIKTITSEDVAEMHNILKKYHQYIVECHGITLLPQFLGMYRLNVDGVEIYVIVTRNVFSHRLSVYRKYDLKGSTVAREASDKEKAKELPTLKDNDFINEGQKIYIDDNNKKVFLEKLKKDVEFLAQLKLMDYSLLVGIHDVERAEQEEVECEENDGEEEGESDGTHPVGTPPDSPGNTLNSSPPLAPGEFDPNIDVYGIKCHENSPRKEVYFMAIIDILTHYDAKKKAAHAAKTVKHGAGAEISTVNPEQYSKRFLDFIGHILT
Description: ADP-glo kinase assay PIP4K 2A (Table 3). As to conditions: compounds listed under IC50 bins. The arrangement: made in house; host or cells: E. coli. The essentials: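 Full-length PIP4K2A (4 nM in the mix) with 100 μM PI(5)P diC8 pre-incubated 15 min with compound in MOPS pH 7.2, 25 mM MgCl2; ATP added (60 μM solution), 1 h at RT. ADP formed read by ADP-Glo luminescence; 10-point curves versus DMSO controls fitted to IC50.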

Experiment [3] deals with T2, PIP4K2A. Nature of the experiment: Kinase Assay PIP4K2 A (Table 2). Details: 4 nM PIP4K2A (full length protein, SignalChem); purchased SignalChem. As to conditions: compounds listed under IC50 bins. The essentials: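 Full-length PIP4K2A (4 nM in the added mix, with 100 μM PI(5)P diC8) pre-incubated 15 min at RT with compounds (10-point, 3-fold series) in 20 mM MOPS pH 7.2, 25 mM MgCl2, 0.005% Tween 20. ATP added from a 60 μM solution, 1 h at RT; ADP-Glo luminescence, IC50 fitted from % inhibition versus DMSO.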

For orientation: IC50 means the concentration that inhibits the measured activity by half. With `CN(C)C(=O)c1ccc(-c2ccc(Nc3cncc(NC(=O)c4ccc5ncoc5c4)c3)nc2)cc1` [Example 136, N-(5-((5-(4-(dimethylcarbamoyl)phenyl)pyridin-2-yl)amino)pyridin-3-yl)benzo[d]oxazole-6-carboxamide], the IC50 in experiment [1], in experiment [2] and in experiment [3] was 10 to 100 nM each time.

As for `O=C1C[C@H](O)CN1c1ccc(-c2ccc(Nc3cnc4c(c3)N3C(=O)CC[C@H]3CO4)nc2)cc1` [Example 237, (S)-2-((5-(4-((S)-4-hydroxy-2-oxopyrrolidin-1-yl)phenyl)pyridin-2-yl)amino)-6,6a,7,8-tetrahydro-9H-pyrido[2,3-b]pyrrolo[1,2-d][1,4]oxazin-9-one], the IC50 in experiment [1] is > 1000 nM; in experiment [2], 100 to 1000 nM; in experiment [3], 100 to 1000 nM.

In the case of `COc1ncc(Nc2ccc(-c3ccc(N4CCCC4=O)cc3)cn2)cc1NC(C)=O` [Example 158, N-(2-methoxy-5-((5-(4-(2-oxopyrrolidin-1-yl)phenyl)pyridin-2-yl)amino)pyridin-3-yl)acetamide], the figures for the 50% inhibitory concentration (IC50) in experiment [1], in experiment [2] and in experiment [3] were 10 to 100 nM, 100 to 1000 nM and 100 to 1000 nM, respectively.

For the compound `CN(C)C(=O)c1ccc(-c2ccc(Nc3cncc(NC(=O)CCc4ccc(N)cc4)c3)nc2)cc1` [Example 118, 4-(6-((5-(3-(4-aminophenyl)propanamido)pyridin-3-yl)amino)pyridin-3-yl)-N,N-dimethylbenzamide], the IC50 in experiment [1], in experiment [2] and in experiment [3] was 10 to 100 nM in each case.

As for `CN(C)C(=O)c1ccc(-c2ccc(Nc3cncc(N4CCN(Cc5ccccc5)C4=O)c3)nc2)cc1` [Example 73, 4-(6-((5-(3-benzyl-2-oxoimidazolidin-1-yl)pyridin-3-yl)amino)pyridin-3-yl)-N,N-dimethylbenzamide], the IC50 in experiment [1] fell in the range of 10 to 100 nM; in experiment [2], 1 to 10 nM; in experiment [3] it was 1 to 10 nM.

`O=C1CCCN1c1ccc(-c2ccc(Nc3cnc4c(c3)N3C(=O)C(O)C[C@H]3CO4)nc2)cc1F` (stereo partly drawn) [Example 267, (6aS)-2-((5-(3-fluoro-4-(2-oxopyrrolidin-1-yl)phenyl)pyridin-2-yl)amino)-8-hydroxy-6,6a,7,8-tetrahydro-9H-pyrido[2,3-b]pyrrolo[1,2-d][1,4]oxazin-9-one]: the IC50 in experiment [1] lay within 10 to 100 nM; in experiment [2] it was 10 to 100 nM; in experiment [3], 1 to 10 nM.

As for `COCCC(=O)N1CCN(c2cncc(Nc3ccc(-c4ccc(N5CCCC5=O)cc4)cn3)c2)CC1` [Example 241, 1-(4-(6-((5-(4-(3-methoxypropanoyl)piperazin-1-yl)pyridin-3-yl)amino)pyridin-3-yl)phenyl)pyrrolidin-2-one], the IC50 in experiment [1] lay within 10 to 100 nM; in experiment [2], 100 to 1000 nM; in experiment [3], 10 to 100 nM.

For `CN(C)C(=O)c1ccc(-c2ccc(Nc3cncc(NC(=O)CCc4cccc(N)c4)c3)nc2)cc1` [Example 102, 4-(6-((5-(3-(3-aminophenyl)propanamido)pyridin-3-yl)amino)pyridin-3-yl)-N,N-dimethylbenzamide], the values for the IC50 in experiment [1], in experiment [2] and in experiment [3] were 10 to 100 nM, 10 to 100 nM and 1 to 10 nM, respectively.

For the compound `O=C1CCCN1c1ccc(-c2ccc(Nc3cnc4c(c3)N(C(=O)C3(O)CC3)CCO4)nc2)cc1` [Example 233, 1-(4-(6-((1-(1-hydroxycyclopropane-1-carbonyl)-2,3-dihydro-1H-pyrido[2,3-b][1,4]oxazin-7-yl)amino)pyridin-3-yl)phenyl)pyrrolidin-2-one], the figures for the IC50 in experiment [1], in experiment [2] and in experiment [3] were 10 to 100 nM, 1 to 10 nM and 1 to 10 nM, respectively.

In the case of `CN(C)C(=O)c1ccc(-c2ccc(Nc3cncc(NC(=O)c4ccc5c(c4)COB5O)c3)nc2)cc1` [Example 132, N-(5-((5-(4-(dimethylcarbamoyl)phenyl)pyridin-2-yl)amino)pyridin-3-yl)-1-hydroxy-1,3-dihydrobenzo[c][1,2]oxaborole-5-carboxamide], the IC50 in experiment [1] lay in the range of 10 to 100 nM; in experiment [2] it was 10 to 100 nM; in experiment [3], 1 to 10 nM.

`CC(=O)N1CCN(C)c2ncc(Nc3ccc(-c4ccc(C(=O)N(C)C)cc4)cn3)cc21` [Example 59, 4-(6-((1-acetyl-4-methyl-1,2,3,4-tetrahydropyrido[2,3-b]pyrazin-7-yl)amino)pyridin-3-yl)-N,N-dimethylbenzamide]: the half-inhibitory concentration (IC50) in experiment [1] lay within 10 to 100 nM; in experiment [2] it was 100 to 1000 nM; in experiment [3] it was 10 to 100 nM.

Turning to `O=C1CCCN1c1ccc(-c2cnc(Nc3cnc4c(c3)N3C(=O)CC[C@H]3CO4)cc2C2CC2)cc1` [Example 178, (S)-2-((4-cyclopropyl-5-(4-(2-oxopyrrolidin-1-yl)phenyl)pyridin-2-yl)amino)-6,6a,7,8-tetrahydro-9H-pyrido[2,3-b]pyrrolo[1,2-d][1,4]oxazin-9-one], the half-maximal inhibitory concentration (IC50) in experiment [1], in experiment [2] and in experiment [3] was 1 to 10 nM in each case.

Consider `O=C1CCCN1c1ccc(-c2ccc(Nc3cnc4c(c3)N3C(=O)CC[C@H]3CO4)nc2)c(F)c1` [Example 191, (S)-2-((5-(2-fluoro-4-(2-oxopyrrolidin-1-yl)phenyl)pyridin-2-yl)amino)-6,6a,7,8-tetrahydro-9H-pyrido[2,3-b]pyrrolo[1,2-d][1,4]oxazin-9-one], for which the values for the IC50 in experiment [1], in experiment [2] and in experiment [3] were 10 to 100 nM, 10 to 100 nM and 1 to 10 nM, respectively.

As for `COc1cc(Nc2cnc3c(c2)N2C(=O)CC[C@H]2CO3)ncc1-c1ccc(N2CCCC2=O)cc1` [Example 179, (S)-2-((4-methoxy-5-(4-(2-oxopyrrolidin-1-yl)phenyl)pyridin-2-yl)amino)-6,6a,7,8-tetrahydro-9H-pyrido[2,3-b]pyrrolo[1,2-d][1,4]oxazin-9-one], the IC50 in experiment [1] was 1 to 10 nM; in experiment [2] it was 1 to 10 nM; in experiment [3], ≤ 1 nM.

On to `CN(C)C(=O)c1ccc(-c2ccc(Nc3cncc(NC(=O)C4CC4c4ccccc4)c3)nc2)cc1` (stereo not drawn) [Example 138, N,N-dimethyl-4-(6-((5-(2-phenylcyclopropane-1-carboxamido)pyridin-3-yl)amino)pyridin-3-yl)benzamide], for which the figures for the IC50 in experiment [1], in experiment [2] and in experiment [3] were 10 to 100 nM, 1 to 10 nM and 1 to 10 nM, respectively.

For the compound `CN(C)C(=O)c1ccc(-c2ccc(Nc3cncc(NC(=O)c4cccnc4)c3)nc2)cc1` [Example 129, N-(5-((5-(4-(dimethylcarbamoyl)phenyl)pyridin-2-yl)amino)pyridin-3-yl)nicotinamide], the IC50 in experiment [1] was in the range of 10 to 100 nM; in experiment [2], 100 to 1000 nM; in experiment [3], 10 to 100 nM.

For `Cc1nc2ncc(Nc3ccc(-c4ccc(C(=O)N(C)C)cc4)cn3)cc2o1` [Example 61, N,N-dimethyl-4-(6-((2-methyloxazolo[4,5-b]pyridin-6-yl)amino)pyridin-3-yl)benzamide], the figures for the IC50 in experiment [1], in experiment [2] and in experiment [3] were > 1000 nM, 100 to 1000 nM and 100 to 1000 nM, respectively.

On to `CN(C)C(=O)c1ccc(-c2ccc(Nc3cncc(NC(=O)CCc4ccccc4)c3)nc2)cc1` [Example 137, N,N-dimethyl-4-(6-((5-(3-phenylpropanamido)pyridin-3-yl)amino)pyridin-3-yl)benzamide], for which the IC50 in experiment [1], in experiment [2] and in experiment [3] was 10 to 100 nM in each case.

The values are drawn from US11667651B2, “Aminopyridine derivatives as phosphatidylinositol phosphate kinase inhibitors” (HiberCell, Inc., priority 2017, dated 2023).
